Patent publication US20210277246A1, “PROBE FOR DETECTING CARBAPENEM-RESISTANT BACTERIA AND USE THEREOF” (priority 2018, published 2021)

Columns and labels:
Assay in all cases: MIC of carbapenems for isolates
Format in all cases: cell-based
Klebsiella oxytoca (VIM) = settings: 1 isolate
[1] = system: Citrobacter freundii (OXA); settings: 1 isolate
Escherichia coli (NDM) = settings: 4 isolates
[2] = system: Klebsiella aerogenes (KPC); settings: 1 isolate
[3] = system: Klebsiella pneumoniae (VIM); settings: 1 isolate
Klebsiella oxytoca (KPC) = settings: 1 isolate
[4] = system: Enterobacter cloacae (non-CP-CRE); settings: 10 isolates
[5] = system: Citrobacter freundii (KPC); settings: 1 isolate
[6] = system: Enterobacter cloacae (VIM); settings: 1 isolate
[7] = system: Enterobacter cloacae (NDM); settings: 2 isolates
[8] = system: Escherichia coli (non-producer); settings: 32 isolates
[9] = system: Klebsiella pneumoniae (non-producer); settings: 21 isolates
[10] = system: Klebsiella pneumoniae (NDM/OXA); settings: NDM/OXA co-producing, 1 isolate
Escherichia coli (IMP) = settings: 1 isolate
Escherichia coli (KPC) = settings: 3 isolates
[11] = system: Klebsiella pneumoniae (GES); settings: 1 isolate
[12] = system: Klebsiella pneumoniae (NDM); settings: 1 isolate
[13] = system: Citrobacter freundii (non-CP-CRE); settings: 1 isolate
[14] = system: Citrobacter freundii (NDM); settings: 1 isolate
[15] = system: Morganella morganii (NDM); settings: 1 isolate
Escherichia coli (OXA) = settings: 3 isolates
[16] = system: Enterobacter amnigenus (non-CP-CRE); settings: Lelliottia amnigena, 4 isolates
[17] = system: Klebsiella pneumoniae (OXA); settings: 2 isolates
[18] = system: Klebsiella pneumoniae (ESBL-producer, CTX-M); settings: 24 isolates
[19] = system: Escherichia coli (non-CP-CRE); settings: 8 isolates
[20] = system: Klebsiella pneumoniae (non-CP-CRE); settings: 22 isolates
[21] = system: Klebsiella pneumoniae (KPC/OXA); settings: KPC/OXA co-producing, 2 isolates
[22] = system: Escherichia coli (ESBL-producer, CTX-M); settings: 29 isolates

Question: How did the MIC (Klebsiella oxytoca (VIM)) turn out when `C[C@@H](O)[C@H]1C(=O)N2C(C(=O)O)=C(S[C@@H]3CN[C@H](C(=O)Nc4cccc(C(=O)O)c4)C3)[C@H](C)[C@H]12` [ERT, ertapenem] was run?
Answer: The MIC was 0.5 µg/mL.

Question: And the MIC [1]?
Answer: Its MIC is 1 µg/mL.

Question: What about the MIC (Escherichia coli (NDM)) of the same molecule?
Answer: Its MIC is over 16 µg/mL.

Question: What about the MIC [2] of the same molecule?
Answer: Its MIC is over 16 µg/mL.

Question: And the MIC [3]?
Answer: Its MIC is over 16 µg/mL.

Question: What about the MIC (Klebsiella oxytoca (KPC)) of the same molecule?
Answer: Its MIC is over 16 µg/mL.

Question: And the MIC [4]?
Answer: The MIC was 2 to 16 µg/mL.

Question: What about the MIC [5] of the same molecule?
Answer: The MIC was over 16 µg/mL.

Question: What about the MIC [6] of the same molecule?
Answer: The MIC was 1 µg/mL.

Question: And the MIC [7]?
Answer: The MIC was over 16 µg/mL.

Question: What about the MIC [8] of the same molecule?
Answer: The MIC was at most 0.125 µg/mL.

Question: What about the MIC [9] of the same molecule?
Answer: Its MIC is at most 0.125 µg/mL.

Question: And the MIC [10]?
Answer: Its MIC is 16 µg/mL.

Question: What about the MIC (Escherichia coli (IMP)) of the same molecule?
Answer: The MIC was 4 µg/mL.

Question: And the MIC (Escherichia coli (KPC))?
Answer: Its MIC is 8 µg/mL.

Question: What about the MIC [11] of the same molecule?
Answer: Its MIC is over 16 µg/mL.

Question: And the MIC [12]?
Answer: The MIC was over 16 µg/mL.

Question: And the MIC [13]?
Answer: The MIC was 2 µg/mL.

Question: What about the MIC [14] of the same molecule?
Answer: The MIC was over 16 µg/mL.

Question: And the MIC [15]?
Answer: Its MIC is 2 µg/mL.

Question: `C[C@@H](O)[C@H]1C(=O)N2C(C(=O)O)=C(SCCN=CN)C[C@H]12` [IPM, imipenem] was tested. Which MIC (Escherichia coli (OXA)) did it give?
Answer: The MIC was 0.5 to 8 µg/mL.

Question: What about the MIC (Klebsiella oxytoca (VIM)) of the same molecule?
Answer: Its MIC is 2 µg/mL.

Question: What about the MIC [16] of the same molecule?
Answer: The MIC was 8 to 16 µg/mL.

Question: What about the MIC [1] of the same molecule?
Answer: The MIC was 2 µg/mL.

Question: What about the MIC (Escherichia coli (NDM)) of the same molecule?
Answer: The MIC was 8 to 16 µg/mL.

Question: What about the MIC [17] of the same molecule?
Answer: Its MIC is 2 to 4 µg/mL.

Question: What about the MIC [2] of the same molecule?
Answer: Its MIC is over 16 µg/mL.

Question: What about the MIC [3] of the same molecule?
Answer: The MIC was over 16 µg/mL.

Question: And the MIC (Klebsiella oxytoca (KPC))?
Answer: The MIC was over 16 µg/mL.

Question: And the MIC [18]?
Answer: Its MIC is 0.25 to 1 µg/mL.

Question: What about the MIC [5] of the same molecule?
Answer: Its MIC is over 16 µg/mL.

Question: And the MIC [6]?
Answer: The MIC was 4 µg/mL.

Question: What about the MIC [7] of the same molecule?
Answer: Its MIC is over 16 µg/mL.

Question: And the MIC [8]?
Answer: Its MIC is 0.25 to 0.5 µg/mL.

Question: What about the MIC [9] of the same molecule?
Answer: Its MIC is 0.25 to 1 µg/mL.

Question: What about the MIC [10] of the same molecule?
Answer: The MIC was 4 µg/mL.

Question: And the MIC (Escherichia coli (IMP))?
Answer: Its MIC is 1 µg/mL.

Question: What about the MIC [19] of the same molecule?
Answer: Its MIC is 0.5 to 16 µg/mL.

Question: And the MIC [20]?
Answer: The MIC was 0.5 to 16 µg/mL.

Question: What about the MIC (Escherichia coli (KPC)) of the same molecule?
Answer: The MIC was 2 to 8 µg/mL.

Question: And the MIC [11]?
Answer: The MIC was over 16 µg/mL.

Question: What about the MIC [12] of the same molecule?
Answer: Its MIC is over 16 µg/mL.

Question: What about the MIC [13] of the same molecule?
Answer: Its MIC is 1 µg/mL.

Question: What about the MIC [14] of the same molecule?
Answer: The MIC was 8 µg/mL.

Question: What about the MIC [15] of the same molecule?
Answer: Its MIC is over 16 µg/mL.

Question: And the MIC [21]?
Answer: The MIC was 4 to 16 µg/mL.

Question: What about the MIC [22] of the same molecule?
Answer: The MIC was 0.25 to 1 µg/mL.
